Calls of active or inactive are those of the source. How the calls were made is not given here.
Test: TIM10 isogenic strain growth inhibitors – luminescence, S. cerevisiae, counter-screen for tim23-1 inhibitor project, SAR follow-up (AID 602380)
Conditions: S. cerevisiae TIM10 isogenic control strain, BacTiter-Glo growth luminescence

Compound	IC50
C(/C=C/c1ccccc1)=NNc1nc2ccccc2[nH]1	8.98 µM
Cc1cccn2c(=O)cc(CSc3cc(C(=O)NC4CC4)c4ccccc4n3)nc12	> 99 µM (inactive)
N#C/C(=C\c1ccc(Cl)cc1)C(=O)Nc1cccnc1	14.2 µM
O=C(Nc1ccc2nc(-c3ccc(Br)o3)[nH]c2c1)c1cccs1	30.9 µM
O=C(Nc1nc2ccccc2s1)C1CCCN1S(=O)(=O)c1ccc(Cl)cc1 (centres undefined)	6.26 µM
O=c1cc(C(F)F)oc2c1ccc1ccccc12	> 99 µM (inactive)
CS(=O)(=O)Nc1ccc(/C(N)=N/OC(=O)c2ccccc2Cl)cc1	66.4 µM
Cc1nc2scc(C)n2c(=O)c1S(=O)(=O)Nc1ccc(CN2CCCCC2)cc1	> 99 µM (inactive)
Cc1ccc(C2=NNC(c3ccc(Cl)cc3Cl)S2)cc1 (centres undefined)	5.15 µM
Cc1nc2scc(C)n2c(=O)c1S(=O)(=O)Nc1ccc(Cl)c(C(F)(F)F)c1	91.1 µM
C=C1CCc2c([nH]c3ccc(OCC(C)C)cc23)C1=O	1.59 µM
Cc1ccc2nc(CS(=O)(=O)c3ncccc3Cl)cc(=O)n2c1	> 99 µM (inactive)
CC(C)(C)c1csc(NC(=O)c2ccc(Cl)s2)n1	9.68 µM
O=c1cc(CSc2ccc(S(=O)(=O)N3CCOCC3)cn2)nc2ccc(Br)cn12	42.9 µM
Cc1ccc(OCC(=O)O/N=C(\N)Cc2ccc(Cl)cc2)cc1	20.4 µM
CN1CCc2nc3sc(C(=O)C45CC6CC(CC(C6)C4)C5)c(N)c3cc2C1	42.1 µM
Cc1cc(OCC(=O)O/N=C(\N)Cc2ccc(Cl)cc2)ccc1Br	2.1 µM
O=C(O)c1cccnc1SCc1cc(=O)n2cc(Br)ccc2n1	> 99 µM (inactive)
Oc1ccc(Oc2ccc(Oc3ccc(O)cc3)cc2)cc1	5.69 µM
Cc1nc2scc(C)n2c(=O)c1S(=O)(=O)Nc1ccc(F)cc1Cl	68.1 µM
CCCCOc1ccc(C(=O)O/N=C(\N)c2cccc(Br)c2)cc1	20.8 µM
COc1ccc([N+](=O)[O-])cc1NS(=O)(=O)c1c(C)nc2scc(C)n2c1=O	> 99 µM (inactive)
N#Cc1c(-c2ccc([N+](=O)[O-])cc2)cc(-c2ccccc2)nc1N	> 99 µM (inactive)
Cc1ccc(S(=O)(=O)Cc2cc(=O)n3ccccc3n2)nc1	> 99 µM (inactive)
N/C(=N\OC(=O)c1ccc2ncsc2c1)c1ccccc1	9.17 µM
Cc1nc2scc(C)n2c(=O)c1S(=O)(=O)Nc1cccc(C(F)(F)F)c1	35.6 µM
Cc1noc(C)c1S(=O)(=O)Nc1ccc(-c2cn3c(n2)SCC3)cc1	79.2 µM

Compound	IC50
Cc1nc2sc(C)c(C)n2c(=O)c1S(=O)(=O)Nc1ccc(Br)cc1	> 99 µM (inactive)
COc1cc2c(cc1OC)/C(=C/c1ccc(Cl)cc1)C(=O)OC2	2.61 µM
O=C(N/N=C/C(Cl)=C\c1ccccc1)c1cccs1	9.48 µM
CCN(C(=O)c1cccc2ncccc12)c1c(N)n(Cc2ccccc2)c(=O)[nH]c1=O	> 99 µM (inactive)
O=C(CSCc1ccccc1)Nc1cc(S(=O)(=O)N2CCOCC2)ccc1Oc1ccccc1	> 99 µM (inactive)
N/C(=N\OC(=O)c1ccc(Cl)cc1)c1ccc(-c2csnn2)cc1	> 99 µM (inactive)
N=c1c2c(-c3ccccc3)c(-c3ccccc3)n(Cc3ccco3)c2ncn1CCCN1CCOCC1	> 99 µM (inactive)
N/C(=N\OC(=O)c1ccc(F)cc1)c1ccc(Br)cc1	39.8 µM
Cc1ccc(/C(N)=N/OC(=O)c2ccccc2)cc1F	1.37 µM
Cc1nn(Cc2cccc(C(=O)O/N=C(\N)c3ccc(Cl)cc3)c2)c(C)c1Br	1.7 µM
O=S(=O)(Nc1ccc(-c2cn3c(n2)SCC3)cc1)c1cccnc1	> 99 µM (inactive)
COc1ccc(/C(N)=N/OC(=O)c2ccc(C(F)(F)F)cc2)c(OC)c1	72.7 µM
CCN1CCc2nc3sc(C(=O)Nc4cc(Cl)ccc4OC)c(N)c3cc2C1	> 99 µM (inactive)
Cc1ccc2nc(N3C(=O)CNC3=S)sc2c1	6.81 µM
COc1ccc(/C=C/C(=O)Nc2ccc3c(c2)CCC3)cc1OC	11.2 µM
O=C(Nc1ccn[nH]1)c1ccc(Br)cc1Cl	> 99 µM (inactive)
CCCN(C(=O)c1ccc([N+](=O)[O-])c(C)c1)c1c(N)n(Cc2ccccc2)c(=O)[nH]c1=O	> 99 µM (inactive)
N/C(=N\OC(=O)c1ccccc1)c1ccc(F)cc1F	16.7 µM
CN1CCN(c2nc(-c3cccnc3)nc3ccccc23)CC1	> 99 µM (inactive)
NC(=O)C1CCN(c2nc(-c3cccnc3)nc3ccccc23)CC1	> 99 µM (inactive)
Cc1nc2scc(C)n2c(=O)c1S(=O)(=O)Nc1ccc2c(c1)OCCO2	80.5 µM
N/C(=N\OC(=O)c1ccc(Cl)c(Cl)c1)c1cccc(CS(=O)(=O)c2ccccn2)c1	15.6 µM
N/C(=N\OC(=O)c1ccc2ncsc2c1)c1ccc(Cl)cc1Cl	2.57 µM
Cn1c(SCc2cccc(/C(N)=N/OC(=O)c3ccc(Cl)cc3)c2)nnc1C(F)(F)F	3.59 µM
CCn1c(N2CCN(S(=O)(=O)c3ccc(OC)cc3)CC2)nc2ccccc21	15.8 µM
Cc1ccc(Nc2nc(-c3cccnc3)nc3ccccc23)cc1	4.04 µM
CCOc1cc2ccccc2cc1C(=O)O/N=C(\N)c1ccc(Cl)cc1	2.42 µM

Compound	IC50
N/C(=N\OC(=O)c1cccc2ccccc12)c1ccc(Cl)cc1	0.781 µM
O=C1OC(c2ccccc2)=N/C1=C\C=C\c1ccco1	6.78 µM
Cc1nc2scc(C)n2c(=O)c1S(=O)(=O)Nc1ccc(Oc2ccc(Cl)cc2)cc1	> 99 µM (inactive)
CCOc1ccc(C(=O)O/N=C(\N)c2ccc(OC)cc2)cc1OCC	5.57 µM
Cc1ccc(-c2cc(NC(=O)c3c(C)noc3C)nc(-c3ccccc3)c2)cc1	> 99 µM (inactive)
CN(C(=O)c1cccc(S(C)(=O)=O)c1)c1c(N)n(Cc2ccccc2)c(=O)[nH]c1=O	> 99 µM (inactive)
N#Cc1ccc(C2N=C(c3ccccc3)NO2)cc1 (centres undefined)	> 99 µM (inactive)
N/C(=N\OC(=O)c1ccc(Cl)cc1)c1cccc(CS(=O)(=O)c2ccccn2)c1	19.2 µM
Cc1nc2scc(C)n2c(=O)c1S(=O)(=O)Nc1ccc(N2CCN(C(=O)C(C)C)CC2)cc1	> 99 µM (inactive)
N/C(=N\OC(=O)c1ccc(Cl)cc1)c1ccc(S(=O)(=O)N2CCOCC2)cc1	4.81 µM
N#Cc1c(-c2ccccc2)cc(-c2ccc(O)cc2)nc1N	4.52 µM
Nc1cccc(Oc2ccc(Oc3cccc(N)c3)cc2)c1	> 99 µM (inactive)
Cc1nc2scc(C)n2c(=O)c1S(=O)(=O)Nc1ccc(N2CCOCC2)cc1	> 99 µM (inactive)
Cc1nc2scc(C)n2c(=O)c1S(=O)(=O)Nc1ccc(OC(F)(F)F)cc1	21.6 µM
Cc1nc(SCc2cc(=O)n3cc(Br)ccc3n2)c(C#N)c(C)c1C	> 99 µM (inactive)
Cc1ccc2nc(N3CCN(S(=O)(=O)C4CC4)CC3)[nH]c2c1	49.4 µM
Cc1ccc2nc(CSc3ncc(C(F)(F)F)cc3Cl)cc(=O)n2c1	> 99 µM (inactive)
Cc1c2c(n(Cc3ccco3)c1C)N=CN1CCS(=O)(=O)N=C21	48.5 µM
Cc1nc2scc(C)n2c(=O)c1S(=O)(=O)Nc1ccc(N2CCN(S(C)(=O)=O)CC2)cc1	> 99 µM (inactive)
O=C(Nc1ccc(-c2cn3ccccc3n2)cc1)c1cccs1	7.93 µM
Cc1nc2scc(C)n2c(=O)c1S(=O)(=O)Nc1cc(C(F)(F)F)ccc1Cl	79.2 µM
O=C(CSc1cccc[n+]1[O-])Nc1ccccc1Oc1ccccc1	0.806 µM
Cc1nc2scc(C)n2c(=O)c1S(=O)(=O)Nc1ccc(N2CCOCC2)c(Cl)c1	> 99 µM (inactive)
CC(C)Cn1cnc2c(c(-c3ccccc3)c(-c3ccccc3)n2Cc2ccco2)c1=N	34.3 µM
O=C(NN=C/C=C\c1ccco1)c1cccs1	4.48 µM
